From ChEMBL document CHEMBL5500342, “Rational molecular design converting fascaplysin derivatives to potent broad-spectrum inhibitors against bacterial pathogens via targeting FtsZ” (Eur J Med Chem, 2024) come the findings set out here.

≈ marks a conversion by molar mass, not a printed value.

Assay [1] concerns Escherichia coli. Briefly: Antibacterial activity against penicillin-susceptible Escherichia coli ATCC25922 assessed as inhibition of bacterial growth incubated for 18 hrs by CLSI protocol based microbroth dilution method. The assay is classed as functional.
In another assay the test system is Salmonella enteritidis. Briefly: Antibacterial activity against Salmonella enteritidis BNCC281091 assessed as inhibition of bacterial growth incubated for 18 hrs by CLSI protocol based microbroth dilution method. The format is functional, Salmonella enterica subsp. enterica serovar Enteritidis. Particulars: Salmonella enterica.
For another assay, the system named is Pseudomonas aeruginosa. Briefly: Antibacterial activity against Pseudomonas aeruginosa BNCC337940 assessed as inhibition of bacterial growth incubated for 18 hrs by CLSI protocol based microbroth dilution method. The format is functional.
The test system of a further assay is Streptococcus pneumoniae. Kind of assay: Antibacterial activity against Streptococcus pneumoniae ATCC49619 assessed as inhibition of bacterial growth incubated for 18 hrs by CLSI protocol based microbroth dilution method. The format is functional.
In the next assay the test system is Bacillus subtilis. Kind of assay: Antibacterial activity against Bacillus subtilis BNCC336690 assessed as inhibition of bacterial growth incubated for 18 hrs by CLSI protocol based microbroth dilution method. The format is functional.
Assay [2] has as its system Staphylococcus aureus. Briefly: Antibacterial activity against methicillin-resistant Staphylococcus aureus ATCC43300 assessed as inhibition of bacterial growth incubated for 18 hrs by CLSI protocol based microbroth dilution method. The format is functional.
Assay [3] deals with Escherichia coli. Briefly: Antibacterial activity against penicillin-susceptible Escherichia coli ATCC25922. The format is functional.
Assay [4] has as its system Staphylococcus aureus. Kind of assay: Antibacterial activity against methicillin-resistant Staphylococcus aureus ATCC43300. The assay is classed as functional.
The subject of assay [5] is Escherichia coli. Briefly: Bactericidal activity against penicillin-susceptible Escherichia coli ATCC25922 incubated for 24 hrs by CLSI protocol based microbroth dilution method. The assay is classed as functional.
Assay [6] concerns Staphylococcus aureus. Kind of assay: Bactericidal activity against methicillin-resistant Staphylococcus aureus ATCC43300 incubated for 24 hrs by CLSI protocol based microbroth dilution method. The format is functional.
Assay [7] relates to Staphylococcus aureus. Kind of assay: Selectivity ratio of MBC for bactericidal activity against methicillin-resistant Staphylococcus aureus ATCC43300 to MIC for antibacterial activity against methicillin-resistant Staphylococcus aureus ATCC43300. The assay is classed as functional.
Assay [8] in a line: Selectivity ratio of MBC for bactericidal activity against penicillin-susceptible Escherichia coli ATCC25922 to MIC for antibacterial activity against penicillin-susceptible Escherichia coli ATCC25922. The format is functional.

As for `CCc1ccc(-c2ccc3[nH]c4c5[n+](ccc4c3c2)-c2ccccc2C5=O)cc1.[Cl-]`, the minimal inhibitory concentration (MIC) in the assay on Escherichia coli [1] is above 200 µg/mL; in the assay on Salmonella enteritidis, above 200 µg/mL; in the assay on Pseudomonas aeruginosa it was above 200 µg/mL; in the assay with Streptococcus pneumoniae, 0.195 µg/mL; in the assay on Bacillus subtilis, 0.195 µg/mL; in the assay with Staphylococcus aureus [2], 1.56 µg/mL.

`Cc1ccc(-c2ccc3[nH]c4c5[n+](ccc4c3c2)-c2ccccc2C5=O)cc1.[Cl-]`: the MIC in the assay with Escherichia coli [3] was 12.5 µg/mL; in the assay on Salmonella enteritidis, above 200 µg/mL; in the assay on Pseudomonas aeruginosa, above 200 µg/mL; in the assay on Streptococcus pneumoniae, 0.195 µg/mL; in the assay on Staphylococcus aureus [4] it was 0.39 µg/mL; in the assay on Bacillus subtilis, 0.195 µg/mL.

As for `Cc1cccc(-c2ccc3[nH]c4c5[n+](ccc4c3c2)-c2ccccc2C5=O)c1.[Cl-]`, the MIC in the assay with Escherichia coli [1] is above 200 µg/mL; in the assay with Salmonella enteritidis, above 200 µg/mL; with Pseudomonas aeruginosa, above 200 µg/mL; in the assay on Streptococcus pneumoniae, 0.195 µg/mL; with Bacillus subtilis it was 0.195 µg/mL; with Staphylococcus aureus [2] it was 0.39 µg/mL.

`CN[C@H](CC(C)C)C(=O)N[C@H]1C(=O)N[C@@H](CC(N)=O)C(=O)N[C@H]2C(=O)N[C@H]3C(=O)N[C@H](C(=O)N[C@H](C(=O)O)c4cc(O)cc(O)c4-c4cc3ccc4O)[C@H](O)c3ccc(c(Cl)c3)Oc3cc2cc(c3O[C@@H]2O[C@H](CO)[C@@H](O)[C@H](O)[C@H]2O[C@H]2C[C@](C)(N)[C@H](O)[C@H](C)O2)Oc2ccc(cc2Cl)[C@H]1O` [VANCOMYCIN]: the MIC came out at 1.56 µg/mL (≈ 1.08 µM) in the assay with Streptococcus pneumoniae and 0.39 µg/mL (≈ 0.269 µM) in the assay with Bacillus subtilis. The MBC against Escherichia coli [5] stood at 3.12 µg/mL (≈ 2.16 µM); against Staphylococcus aureus [6], 1 µg/mL (≈ 0.69 µM).

Regarding `O=C1c2ccccc2-[n+]2ccc3c([nH]c4ccc(-c5cc(F)cc(F)c5)cc43)c21.[Cl-]`, the MIC in the assay on Escherichia coli [1] is 12.5 µg/mL; with Salmonella enteritidis, above 200 µg/mL; in the assay on Pseudomonas aeruginosa, above 200 µg/mL; with Streptococcus pneumoniae, 0.195 µg/mL; in the assay on Bacillus subtilis it was 0.195 µg/mL; in the assay with Staphylococcus aureus [2], 3.12 µg/mL.

For the compound `COc1cccc(-c2ccc3[nH]c4c5[n+](ccc4c3c2)-c2ccccc2C5=O)c1.[Cl-]`, the MIC against Escherichia coli [3] was 12.5 µg/mL; with Salmonella enteritidis it was above 200 µg/mL; in the assay on Pseudomonas aeruginosa, above 200 µg/mL; in the assay with Streptococcus pneumoniae, 0.39 µg/mL; in the assay on Staphylococcus aureus [4], 0.39 µg/mL; in the assay on Bacillus subtilis it was 0.195 µg/mL.

Take `COc1ccc(-c2ccc3[nH]c4c5[n+](ccc4c3c2)-c2ccccc2C5=O)cc1.[Cl-]`: the MIC was 25 µg/mL against Escherichia coli [3]; above 200 µg/mL in the assay with Salmonella enteritidis; above 200 µg/mL with Pseudomonas aeruginosa; 0.195 µg/mL with Streptococcus pneumoniae; 0.78 µg/mL against Staphylococcus aureus [4]; 0.195 µg/mL with Bacillus subtilis.

As for `CCCCc1ccc(-c2ccc3[nH]c4c5[n+](ccc4c3c2)-c2ccccc2C5=O)cc1.[Cl-]`, the MIC was above 200 µg/mL in the assay with Escherichia coli [1]; above 200 µg/mL in the assay with Salmonella enteritidis; above 200 µg/mL in the assay with Pseudomonas aeruginosa; 0.78 µg/mL in the assay on Streptococcus pneumoniae; 1.56 µg/mL with Bacillus subtilis; 6.25 µg/mL with Staphylococcus aureus [2].

As to `Cc1ccc(-c2ccc3[nH]c4c5[n+](ccc4c3c2)-c2ccccc2C5=O)cc1C.[Cl-]`, the MIC in the assay with Escherichia coli [1] is above 200 µg/mL; in the assay on Salmonella enteritidis it was above 200 µg/mL; in the assay on Pseudomonas aeruginosa it was above 200 µg/mL; with Streptococcus pneumoniae, 0.78 µg/mL; in the assay on Bacillus subtilis it was 0.195 µg/mL; in the assay with Staphylococcus aureus [2] it was 6.25 µg/mL.

On to `CCCc1ccc(-c2ccc3[nH]c4c5[n+](ccc4c3c2)-c2ccccc2C5=O)cc1.[Cl-]`, for which the MIC with Escherichia coli [1] was above 200 µg/mL; in the assay with Salmonella enteritidis, above 200 µg/mL; in the assay with Pseudomonas aeruginosa, above 200 µg/mL; with Streptococcus pneumoniae it was 0.195 µg/mL; with Bacillus subtilis, 0.195 µg/mL; in the assay on Staphylococcus aureus [2], 1.56 µg/mL.

With `O=C1c2ccccc2-[n+]2ccc3c([nH]c4ccc(-c5ccc(F)cc5)cc43)c21.[Cl-]`, the MIC in the assay with Escherichia coli [3] was 6.25 µg/mL; with Salmonella enteritidis, above 200 µg/mL; with Pseudomonas aeruginosa it was above 200 µg/mL; with Streptococcus pneumoniae, 0.195 µg/mL; against Staphylococcus aureus [4] it was 1.56 µg/mL; in the assay on Bacillus subtilis, 0.195 µg/mL.

Regarding `O=C1c2ccccc2-[n+]2ccc3c([nH]c4ccc(-c5ccc(C(F)(F)F)cc5)cc43)c21.[Cl-]`, the MIC against Escherichia coli [3] was 1.56 µg/mL; with Salmonella enteritidis it was above 200 µg/mL; with Pseudomonas aeruginosa, above 200 µg/mL; in the assay on Streptococcus pneumoniae, 1.56 µg/mL; in the assay on Staphylococcus aureus [4] it was 0.39 µg/mL; in the assay on Bacillus subtilis, 0.195 µg/mL.

On to `O=C1c2ccccc2-[n+]2ccc3c([nH]c4ccccc43)c21` [FASCAPLYSIN], for which the MIC was 12.5 µg/mL in the assay on Escherichia coli [1] and 0.78 µg/mL with Staphylococcus aureus [2]. For the same compound, the Selectivity ratio (in the assay with Staphylococcus aureus [7]; in [8]) was 2 throughout. Further, the MBC against Escherichia coli [5] amounted to 25 µg/mL; with Staphylococcus aureus [6], 1.56 µg/mL.

On to `O=C1c2ccccc2-[n+]2ccc3c([nH]c4ccc(-c5ccc(F)cc5F)cc43)c21.[Cl-]`, for which the MIC against Escherichia coli [3] was 1.56 µg/mL; in the assay with Salmonella enteritidis, above 200 µg/mL; in the assay on Pseudomonas aeruginosa, above 200 µg/mL; in the assay with Streptococcus pneumoniae, 0.195 µg/mL; in the assay on Staphylococcus aureus [4], 0.195 µg/mL; in the assay on Bacillus subtilis, 0.195 µg/mL.

As for `O=C1c2ccccc2-[n+]2ccc3c([nH]c4ccc(-c5ccc(Cl)cc5)cc43)c21.[Cl-]`, the MIC in the assay on Escherichia coli [1] is above 200 µg/mL; in the assay on Salmonella enteritidis, above 200 µg/mL; with Pseudomonas aeruginosa, above 200 µg/mL; in the assay on Streptococcus pneumoniae, 0.39 µg/mL; with Bacillus subtilis, 0.195 µg/mL; in the assay with Staphylococcus aureus [2], 1.56 µg/mL.

Turning to `O=C1c2ccccc2-[n+]2ccc3c([nH]c4ccc(-c5ccccc5)cc43)c21.[Cl-]`, the MIC in the assay on Escherichia coli [3] was 3.12 µg/mL; in the assay with Salmonella enteritidis, above 200 µg/mL; in the assay on Pseudomonas aeruginosa, 200 µg/mL; with Streptococcus pneumoniae, 0.195 µg/mL; against Staphylococcus aureus [4] it was 0.78 µg/mL; in the assay on Bacillus subtilis it was 0.195 µg/mL.

As for `O=C1c2ccccc2-[n+]2ccc3c([nH]c4ccc(-c5cccc(Cl)c5)cc43)c21.[Cl-]`, the MIC in the assay with Escherichia coli [1] is 25 µg/mL; with Salmonella enteritidis it was above 200 µg/mL; with Pseudomonas aeruginosa it was above 200 µg/mL; with Streptococcus pneumoniae, 0.195 µg/mL; with Bacillus subtilis, 0.195 µg/mL; in the assay with Staphylococcus aureus [2], 0.39 µg/mL.
